Reference: US8101605B2, “SHIP1 modulators and methods related thereto” (Aquinox Pharmaceuticals Inc., priority 2009, dated 2012)

Experiments:
OPM2 cells = assay: Inhibition of OPM2 proliferation (BrdU ELISA); assay type: cell-based; conditions: Homo sapiens, OPM-2, 72 hours, read-out: Scoring: % inhibition of OPM2 proliferation
Method: Test compounds were dissolved in 100% DMSO to form stock solutions. Prior to screening, the stock solutions were diluted with complete media (RPMI 1640 containing 10% fetal calf serum, 2 mM L-glutamine and 50 U/mL each of penicillin and streptomycin) to form working assay solutions that contain 0.2% DMSO. The assay was initiated by adding 30,000 OPM2 cells (in 50 μL) to 50 μL of representative compounds at concentrations ranging from 0.03 to 30 μM. The cells were incubated for 72 hours in a humidified CO2 incubator with the addition of 10 μM BrdU for the final 6 hours according to the directions from the Roche BrdU Cell Proliferation ELISA kit used to detect proliferation (Roche, Cat. No. 11 647 229 001). OPM2 cells incubated in 0.1% DMSO in complete media were used as a negative control and the PI3Kα Inhibitor 2 (3-[4-(4-morpholinyl)thieno[3,2-d]pyrimidin-2-yl-phenol, Cayman Chemical, Cat. No. 10010177) was used as a positive control for inhibition of proliferation. At the end of the incubation, the plate containing the labeled cells was centrifuged, the supernatant removed and the cell pellets dried at 60° C. for 1 hour and stored at 4° C. until further analysis. Analysis of BrdU incorporation was done according to the manufacturer's instructions.

His-hSHIP1 enzyme = molecular target: T1, His-hSHIP1 enzyme (Homo sapiens, UniProt Q92835); assay: His-hSHIP1 phosphatase activity assay (IP4 substrate, Biomol Green); assay type: biochemical; conditions: percentage increase relative to background; concentrations ≦300 μM
T1 sequence (Q92835 1-1189): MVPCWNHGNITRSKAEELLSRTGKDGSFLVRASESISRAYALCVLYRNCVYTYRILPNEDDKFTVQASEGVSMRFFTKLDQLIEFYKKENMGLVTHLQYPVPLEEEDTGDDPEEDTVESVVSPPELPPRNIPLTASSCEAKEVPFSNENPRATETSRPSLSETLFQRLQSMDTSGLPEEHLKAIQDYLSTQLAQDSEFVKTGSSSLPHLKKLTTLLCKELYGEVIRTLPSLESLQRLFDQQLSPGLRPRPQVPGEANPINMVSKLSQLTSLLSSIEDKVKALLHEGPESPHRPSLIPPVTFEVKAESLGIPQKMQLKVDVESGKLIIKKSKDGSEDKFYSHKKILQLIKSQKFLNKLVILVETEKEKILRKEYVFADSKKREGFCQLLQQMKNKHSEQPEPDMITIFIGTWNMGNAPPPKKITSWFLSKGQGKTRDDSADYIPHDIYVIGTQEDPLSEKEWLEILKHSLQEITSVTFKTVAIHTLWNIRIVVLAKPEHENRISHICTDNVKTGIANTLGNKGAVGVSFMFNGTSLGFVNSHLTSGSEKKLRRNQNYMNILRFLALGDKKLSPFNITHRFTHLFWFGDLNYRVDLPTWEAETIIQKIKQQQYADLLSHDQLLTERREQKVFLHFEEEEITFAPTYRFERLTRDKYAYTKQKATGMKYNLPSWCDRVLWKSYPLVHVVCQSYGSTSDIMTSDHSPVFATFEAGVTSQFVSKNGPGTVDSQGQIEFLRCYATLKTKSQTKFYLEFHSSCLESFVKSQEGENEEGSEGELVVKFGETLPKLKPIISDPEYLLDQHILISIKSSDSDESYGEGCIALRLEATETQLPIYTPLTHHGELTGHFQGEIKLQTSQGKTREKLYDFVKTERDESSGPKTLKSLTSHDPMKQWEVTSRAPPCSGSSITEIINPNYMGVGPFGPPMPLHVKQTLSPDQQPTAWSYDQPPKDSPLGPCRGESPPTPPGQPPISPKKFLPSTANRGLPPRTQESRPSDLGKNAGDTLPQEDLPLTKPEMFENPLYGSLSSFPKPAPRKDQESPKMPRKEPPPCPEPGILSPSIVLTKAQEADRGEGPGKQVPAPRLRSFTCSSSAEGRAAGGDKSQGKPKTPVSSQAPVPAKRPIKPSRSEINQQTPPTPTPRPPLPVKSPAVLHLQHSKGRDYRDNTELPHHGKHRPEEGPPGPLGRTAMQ
Method: Test compounds were dissolved in 95% ethanol to form stock solutions. Before screening, the stock solutions were diluted with Phosphatase Assay Buffer (20 mM Tris-HCL, 10 mM MgCl2 pH 7.5, 0.02% Tween 20) to form working assay solutions that contained 10% ethanol. The assay was carried out on 96-well microtiter plates using a modified procedure of that reported by Ong et al., Blood 110, 1942-1949, 2007 and Yang et al., Org Lett 7, 1073-1076, 2005, both of which references are incorporated herein by reference in their entirety.
Each reaction contained 5 μL of His-hSHIP1 enzyme (15-20 ng), 10 μL of the substrate, 1,3,4,5-inositol tetrakisphosphate (IP4; 50 μM final), 5 μL of Phosphatase Assay Buffer, and 5 μL of test compound at various concentrations in 10% ethanol (0-300 μM final). Control blanks were also prepared by replacing His-hSHIP1 enzyme, IP4, or test compounds with Phosphatase Assay Buffer. After adding the reaction components in a 96-well microtiter plate on ice, the reaction was mixed by briefly shaking the plate vigorously. The reaction was then incubated at 37° C. for 15 min with gentle shaking followed by addition of 100 μL of Biomol Green Reagent (BIOMOL, PA, USA) to terminate the reaction. The free phosphate released from IP4 by His-hSHIP1 bound to the Biomol Green Reagent, turning the solution green in colour. After incubating the mixture for 20 min at room temperature for colour development, the absorbance was read with a SpectraMax Plus 96-well plate reader (Molecular Devices, Sunnyvale, Calif., USA) at a wavelength of 650 nm.
Percent (%) activation in Table 2 is expressed as a percentage increase relative to background. Scoring is expressed as follows: + (<50%); ++ (≧50% but <65%); +++ (≧65%).

SMILES	inhibition at 30 µM (OPM2 cells) [%]	Scoring: percent (%) activation of His-hSHIP1 enzyme (His-hSHIP1 enzyme)
CC1(C)CCC[C@]2(C)[C@H]3CS(=O)(=O)c4cc(OCC(=O)O)cc(OCC(=O)O)c4[C@]3(C)CC[C@@H]12 [compound 108, 2-{[(1R,10R,11S,16S)-3-(carboxymethoxy)-1,11,15,15-tetramethyl-8,8-dioxo-8^6-thiatetracyclo[8.8.0.0^2,7.0^11,16]octadeca-2,4,6-trien-5-yl]oxy}acetic acid]	< 25	–
Cc1cc(O)c2c(c1)SC[C@@H]1[C@@]3(C)CCCC(C)(C)[C@@H]3CC[C@@]21C [Compound No. 15, (1R,10R,11S,16S)-1,5,11,15,15-pentamethyl-8-thiatetracyclo[8.8.0.0^2,7.0^11,16]octadeca-2,4,6-trien-3-ol]	–	+++ (≧65%)
COc1cc(O)c2c(c1)OC[C@@H]1[C@@]3(C)CCCC(C)(C)[C@@H]3CC[C@@]21C [Compound No. 39, (1R,10R,11S,16S)-5-methoxy-1,11,15,15-tetramethyl-8-oxatetracyclo[8.8.0.0^2,7.0^11,16]octadeca-2,4,6-trien-3-ol]	–	++ (≧50% but <65%)
CC1(C)CCC[C@]2(C)[C@H]3CS(=O)(=O)c4cc(C(=O)N5CCC(C(=O)O)CC5)cc(O)c4[C@]3(C)CC[C@@H]12 [compound 98, 1-{[(1R,10R,11S,16S)-3-hydroxy-1,11,15,15-tetramethyl-8,8-dioxo-8λ^6-thiatetracyclo[8.8.0.0^2,7.0^11,16]octadeca-2,4,6-trien-5-yl]carbonyl}piperidine-4-carboxylic acid]	–	+ (<50%)
CNC(=O)c1cc(O)cc2c1[C@]1(C)CC[C@H]3C(C)(C)CCC[C@]3(C)[C@H]1CS2 [compound 76, (1R,10R,11S,16S)-5-hydroxy-N,1,11,15,15-pentamethyl-8-thiatetracyclo-[8.8.0.0^2,7.0^11,16]octadeca-2,4,6-triene-3-carboxamide]	–	+ (<50%)
CC1(C)CCC[C@]2(C)[C@H]3CS(=O)(=O)c4cc(O)cc(C(=O)NCC(=O)O)c4[C@]3(C)CC[C@@H]12 [compound 91, 2-{[(1R,10R,11S,16S)-5-hydroxy-1,11,15,15-tetramethyl-8,8-dioxo-8λ^6-thiatetracyclo[8.8.0.0^2,7.0^11,16]octadeca-2,4,6-trien-3-yl]formamido}acetic acid]	–	+ (<50%)
CC1(C)CCC[C@]2(C)[C@H]3CS(=O)(=O)c4cc(O)cc(C#N)c4[C@]3(C)CC[C@@H]12 [compound 79, (1R,10R,11S,16S)-5-hydroxy-1,11,15,15-tetramethyl-8,8-dioxo-8λ^6-thiatetracyclo[8.8.0.0^2,7.0^11,16]octadeca-2,4,6-triene-3-carbonitrile]	–	+ (<50%)
CNC(=O)c1cc(C(=O)NC)c2c(c1)S(=O)(=O)C[C@@H]1[C@@]3(C)CCCC(C)(C)[C@@H]3CC[C@@]21C [compound 86, (1R,10R,11S,16S)-1,3-N,5-N,11,15,15-hexamethyl-8,8-dioxo-8λ^6-thiatetracyclo[8.8.0.0^2,7.0^11,16]octadeca-2,4,6-triene-3,5-dicarboxamide]	–	+ (<50%)
CC1(C)CCC[C@]2(C)[C@H]3CS(=O)(=O)c4cc(OCC(=O)O)cc(O)c4[C@]3(C)CC[C@@H]12 [compound 105, 2-{[(1R,10R,11S,16S)-3-hydroxy-1,11,15,15-tetramethyl-8,8-dioxo-8^6-thiatetracyclo[8.8.0.0^2,7.0^11,16]octadeca-2,4,6-trien-5-yl]oxy}acetic acid]	–	+ (<50%)
CNC(=O)c1cc2c(cc1O)S(=O)(=O)C[C@@H]1[C@@]3(C)CCCC(C)(C)[C@@H]3CC[C@@]21C [compound 73, (1R,10R,11S,16S)-5-hydroxy-N,1,11,15,15-pentamethyl-8,8-dioxo-8λ^6-thiatetracyclo[8.8.0.0^2,7.0^11,16]octadeca-2,4,6-triene-4-carboxamide]	–	+ (<50%)
CNC(=O)c1cc(O)cc2c1[C@]1(C)CC[C@H]3C(C)(C)CCC[C@]3(C)[C@H]1CS2(=O)=O [compound 66, (1R,10R,11S,16S)-5-hydroxy-N,1,11,15,15-pentamethyl-8,8-dioxo-8λ^6-thiatetracyclo[8.8.0.0^2,7.0^11,16]octadeca-2,4,6-triene-3-carboxamide]	–	+ (<50%)
COc1cc(O)c(CN2CCOCC2)c2c1[C@]1(C)CC[C@H]3C(C)(C)CCC[C@]3(C)[C@H]1CS2(=O)=O [compound 106, (1R,10R,11S,16S)-5-hydroxy-3-methoxy-1,11,15,15-tetramethyl-6-(morpholin-4-ylmethyl)-8^6-thiatetracyclo[8.8.0.0^2,7.0^11,16]octadeca-2,4,6-triene-8,8-dione]	–	+ (<50%)
COc1cc(O)c2c(c1)[C@]1(C)CC[C@H]3C(C)(C)CCC[C@]3(C)[C@H]1CO2 [Compound No. 44, (1R,10R,11S,16S)-4-methoxy-1,11,15,15-tetramethyl-8-oxatetracyclo[8.8.0.0^2,7.0^11,16]octadeca-2,4,6-trien-6-ol]	–	++ (≧50% but <65%)
CONC(=O)c1cc(O)cc2c1[C@]1(C)CC[C@H]3C(C)(C)CCC[C@]3(C)[C@H]1CS2(=O)=O [compound 95, (1R,10R,11S,16S)-5-hydroxy-N-methoxy-1,11,15,15-tetramethyl-8,8-dioxo-8λ^6-thiatetracyclo[8.8.0.0^2,7.0^11,16]octadeca-2,4,6-triene-3-carboxamide]	–	+ (<50%)
COc1cc(OCC(=O)O)cc2c1[C@]1(C)CC[C@H]3C(C)(C)CCC[C@]3(C)[C@H]1CS2(=O)=O [compound 104, 2-{[(1R,10R,11S,16S)-3-methoxy-1,11,15,15-tetramethyl-8,8-dioxo-8^6-thiatetracyclo[8.8.0.0^2,7.0^11,16]octadeca-2,4,6-trien-5-yl]oxy}acetic acid]	–	+ (<50%)
